Read-outs that look alike come from different tables or passages of the source.
Key:
[1] = test system: SARS-CoV-2 (England 02/2020/407073 isolate); experiment: SARS-CoV-2 replication in Vero E6 cells, plaque assay; type: cell-based
SARS-CoV-2 RdRP = SARS-CoV-2 RdRP (Severe acute respiratory syndrome coronavirus 2, UniProt P0DTD1); experiment: SARS-CoV-2 RdRP RNA polymerization activity, in vitro fluorescent assay; type: biochemical; settings: for inhibition of RdRP polymerization activity (in words): dose-response, relative to DMSO
SARS-CoV-2 [2] = experiment: Total and genomic viral RNA levels in cell lysates, RT-qPCR; type: cell-based; settings: Vero E6 and Caco-2 cells, 48 hours after infection
[3] = design: method as in PMID 25251156; settings: halted progression from phase II clinical trials; cited from earlier work
Vero E6 cells = experiment: Cytotoxicity in uninfected Vero E6 cells, MTT assay
SARS-CoV-2 [4] = settings: cited from earlier work
[5] = Severe acute respiratory syndrome coronavirus 2, Vero C1008, read-out: IC50 (50% decrease in the titre of supernatant virus), MOI 0.05, 48 h
[6] = purified RdRP, 2 hours at 37°C, middle point between top and bottom plateaus, read-out: relative IC50 (RdRP polymerization activity)

Structure (SMILES)	IC50 [1, 5] [µM]	inhibition of RdRP polymerization activity (in words) (SARS-CoV-2 RdRP)	IC50 (SARS-CoV-2 RdRP; [6]) [µM]	other results
COc1nc(N)nc2c1ncn2[C@@H]1O[C@H](COP(=O)(N[C@@H](C)C(=O)OCC(C)(C)C)Oc2cccc3ccccc23)[C@@H](O)[C@@]1(C)O (some centres unmarked) [BMS-986094]	26.6	inhibited RdRP polymerization activity in a dose-dependent manner		IC50 (SARS-CoV-2 RdRP): 18.4 µM; total and genomic viral RNA levels in cell lysates (in words) (SARS-CoV-2 [2]): consistently decreasing; cardiac effects (in words) [3]: harmful cardiac effects; concentration at which toxic to cells (Vero E6 cells; 48 h): > 100 µM
C/C1=C2/[N-]C([C@H](CC(N)=O)[C@@]2(C)CCC(=O)NC[C@@H](C)OP(=O)([O-])O[C@H]2[C@@H](O)[C@@H](n3cnc4cc(C)c(C)cc43)O[C@@H]2CO)[C@]2(C)N=C(/C(C)=C3N=C(/C=C4N=C1[C@@H](CCC(N)=O)C\4(C)C)[C@@H](CCC(N)=O)[C@]\3(C)CC(N)=O)[C@@H](CCC(N)=O)[C@]2(C)CC(N)=O.[CH2-][C@H]1O[C@@H](n2cnc3c(N)ncnc32)[C@@H](O)[C@@H]1O.[Co+3] [Cobamamide, cobamamide]		inhibited RdRP polymerization activity in a dose-dependent manner	54.4	IC50 ([1]; read-out: IC50 (50% decrease in the titre of supernatant virus), MOI 0.05, 48 h): 403 µM; cytotoxicity (Vero E6 cells; highest dose of 1mM): up to 20%
CC(C)OC(=O)[C@H](C)N[P@+]([O-])(OC[C@H]1O[C@@](C#N)(c2ccc3c(N)ncnn23)[C@](C)(O)[C@@H]1OC(=O)C(C)C)Oc1ccccc1 [GS-6620]				efficacy against SARS-CoV-2 (in words) (SARS-CoV-2 [4]): lack of efficacy against SARS-CoV-2
C/C1=C2/[N-][C@H]([C@H](CC(N)=O)[C@@]2(C)CCC(=O)NC[C@@H](C)OP(=O)([O-])O[C@H]2[C@@H](O)[C@@H](n3cnc4cc(C)c(C)cc43)O[C@@H]2CO)[C@]2(C)N=C(/C(C)=C3N=C(/C=C4N=C1[C@@H](CCC(N)=O)C\4(C)C)[C@@H](CCC(N)=O)[C@]\3(C)CC(N)=O)[C@@H](CCC(N)=O)[C@]2(C)CC(N)=O.[Co+3].[OH-] [Hydroxocobalamin, hydroxocobalamin]		inhibited RdRP polymerization activity in a dose-dependent manner	90.4	
C/C1=C2/[N-][C@H]([C@H](CC(N)=O)[C@@]2(C)CCC(=O)NC[C@H](C)OP(=O)([O-])O[C@H]2[C@@H](O)[C@@H](n3cnc4cc(C)c(C)cc43)O[C@@H]2CO)[C@]2(C)N=C(/C(C)=C3N=C(/C=C4N=C1[C@@H](CCC(N)=O)C\4(C)C)[C@@H](CCC(N)=O)[C@]\3(C)CC(N)=O)[C@@H](CCC(N)=O)[C@]2(C)CC(N)=O.[CH3-].[Co+3] [Mecobalamin, methylcobalamin]		inhibited RdRP polymerization activity in a dose-dependent manner	85.7	
CCC(CC)COC(=O)[C@H](C)N[P@](=O)(OC[C@H]1O[C@@](C#N)(c2ccc3c(N)ncnn23)[C@H](O)[C@@H]1O)Oc1ccccc1 [Remdesivir]	1			cytotoxic effects (in words) (Vero E6 cells): did not exert observable cytotoxic effects

Source: PMC9333455, “Drug repurposing based on a quantum-inspired method versus classical fingerprinting uncovers potential antivirals against SARS-CoV-2” (PLoS Computational Biology, 2022)
